Test results taken from paper PMC8145986, “In Vitro Enzymatic and Kinetic Studies, and In Silico Drug-Receptor Interactions, and Drug-Like Profiling of the 5-Styrylbenzamide Derivatives as Potential Cholinesterase and β-Secretase Inhibitors with Antioxidant Properties” (Antioxidants, 2021).

Molecular target: T1, AChE (Homo sapiens, UniProt P22303)
T1 construct: purchased BioLegend (via Biocom Africa (Pty) Ltd.)
Assay: biochemical
Details: mean ± SD of three independent experiments
Experimental: The melting point values of the test compounds were recorded on a Thermocouple digital melting point apparatus (Mettler Toledo LLC, Columbus, OH, USA). The infrared (IR) spectra were recorded using the thin-film method on a Bruker VERTEX 70 FT-IR Spectrometer (Bruker Optics, Billerica, MA, USA) equipped with an ATR (diamond attenuated total reflectance) accessory. Merck kieselgel 60 (0.063–0.200 mm) (Merck KGaA, Frankfurt, Germany) was used as a stationary phase for column chromatography. The ^1H-NMR and ^13C-NMR spectra of the prepared compounds were obtained as deuterated dimethyl sulfoxide ((CD3)2SO) solutions using Agilent 500 MHz NMR spectrometer (Agilent Technologies, Oxford, UK) operating at 500 MHz and 125 MHz for ^1H and ^13C, respectively. The chemical shifts are quoted relative to tetramethylsilane (TMS) used as an internal reference standard (δ = 0.00 ppm) or a residual protonated solvent. The high-resolution mass spectra were recorded at an ionization potential of 70 eV using Micromass Autospec-TOF (double focusing high resolution) instrument (Waters Corp., Milford, MA, USA). The synthesis and analytical data for 2-amino-5-iodobenzamide (1) have been reported in our previous study. Recombinant human AChE (BioLegend) and BChE (Cloud-Clone Corp.) were purchased via Biocom Africa (Pty) Ltd. (Centurion, Pretoria, South Africa).
AChE and BChE were used to determine cholinesterase activities spectrophotometrically using […] as substrates, respectively, following a modification of the Ellman’s method, as described in our previous study, and the reactions were performed in triplicate at 37 °C in a 96-well plate. […] A multi-channel pipette was used for the addition of reagents to the wells.
To each well of a 96-well plate, 8.0 μL solution of the test compound, 2.0 μL of AChE (0.04 mg/mL), and 70 μL of Tris buffer (C4H11NO3, 50 mM, pH 7.7) were added sequentially. The assay mixture was pre-incubated for 30 min at room temperature, which was followed by the addition of 10 μL of 5,5′-dithiobis-(2-nitrobenzoic acid) (DTNB, 3 mM in Tris buffer, 50 mM, pH 7.7) and 10 μL of […] (AChI, 5 mM in tris buffer, 50 mM, pH 7.7) to each well to initiate the reaction. […] The average values obtained from the absorbance readings were used to determine the IC50 and standard deviation values using the Graph Pad Prism (version 5.0, GraphPad software Inc., San Diego, CA, USA).

T1 sequence (P22303 32-614): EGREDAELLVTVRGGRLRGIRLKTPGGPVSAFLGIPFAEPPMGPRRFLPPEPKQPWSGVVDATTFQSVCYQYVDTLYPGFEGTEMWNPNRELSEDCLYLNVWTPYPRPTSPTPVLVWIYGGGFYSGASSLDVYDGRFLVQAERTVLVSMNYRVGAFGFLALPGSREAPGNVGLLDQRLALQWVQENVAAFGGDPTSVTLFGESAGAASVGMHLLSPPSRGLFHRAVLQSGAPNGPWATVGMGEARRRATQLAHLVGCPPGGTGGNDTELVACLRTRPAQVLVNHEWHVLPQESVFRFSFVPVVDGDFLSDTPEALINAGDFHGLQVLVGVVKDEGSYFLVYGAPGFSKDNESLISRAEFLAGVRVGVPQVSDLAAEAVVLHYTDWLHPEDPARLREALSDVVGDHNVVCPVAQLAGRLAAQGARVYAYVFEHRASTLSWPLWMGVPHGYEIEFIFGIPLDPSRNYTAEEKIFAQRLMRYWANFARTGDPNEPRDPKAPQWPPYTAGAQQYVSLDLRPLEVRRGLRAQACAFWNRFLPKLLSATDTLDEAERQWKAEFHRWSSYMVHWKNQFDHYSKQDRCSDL

NC(=O)c1cc(/C=C/c2ccccc2)ccc1N [Compound 2a, (E)-2-Amino-5-styrylbenzamide]
IC50: 2300 ± 110 nM
